According to US20060019964A1, “Compounds” (priority 2002, published 2006):

How the values were obtained:
CNS penetration = format: in vivo, male CD Sprague Dawley rats; conditions: male, CD Sprague Dawley, brain; rat, 1 mg/kg intravenous, 5 minutes post-dose; described as low CNS penetration; read-out: CNS penetration (compound in brain tissue)
Protocol: Compounds were dosed intravenously at a nominal dose level of 1 mg/kg to male CD Sprague Dawley rats. Compounds were formulated in 5% DMSO/45% PEG200/50% water. Blood samples were taken under terminal anaesthesia with isoflurane at 5 minutes post-dose and the brains were also removed for assessment of brain penetration. Blood samples were taken directly into heparinised tubes. Blood samples were prepared for analysis using protein precipitation and brain samples were prepared using extraction of drug from brain by homogenisation and subsequent protein precipitation. The concentration of parent drug in blood and brain extracts was determined by quantitative LC-MS/MS analysis using compound-specific mass transitions.

histamine H3 receptor = target: T1, histamine H3 receptor (Homo sapiens, UniProt Q9Y5N1); experiment: Histamine H3 functional antagonist assay ([35S]-GTPγS, CHO cell membranes); format: biochemical; conditions: functional antagonism vs histamine EC80, GTPγS; read-out: average pki (pKb) at H3 (converted)
T1 construct: expressed in transfected cells; host or cells: CHO K1 cells carrying pSwitch, transfected with pGeneH3, induced with mifepristone; clone 3H3; membrane preparation
T1 sequence (Q9Y5N1 whole entry, species assumed): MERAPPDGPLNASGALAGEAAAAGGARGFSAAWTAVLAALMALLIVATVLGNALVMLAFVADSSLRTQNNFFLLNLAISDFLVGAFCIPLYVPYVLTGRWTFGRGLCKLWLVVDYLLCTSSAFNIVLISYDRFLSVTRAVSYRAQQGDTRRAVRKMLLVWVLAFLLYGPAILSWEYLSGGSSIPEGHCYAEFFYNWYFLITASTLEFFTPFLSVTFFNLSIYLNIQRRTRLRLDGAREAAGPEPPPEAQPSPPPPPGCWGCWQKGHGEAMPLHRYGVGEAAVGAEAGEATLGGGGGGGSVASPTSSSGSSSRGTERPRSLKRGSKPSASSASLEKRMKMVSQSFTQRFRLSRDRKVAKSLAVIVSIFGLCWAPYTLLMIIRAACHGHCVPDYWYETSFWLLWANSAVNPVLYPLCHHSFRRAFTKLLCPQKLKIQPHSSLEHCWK
Source text: 2. H3 Receptor Cell Line Generation, Membrane Preparation and Functional GTPγS Assay Protocols
Generation of Histamine H3 Cell Line
The histamine H3 cDNA was isolated from its holding vector, pcDNA3.1 TOPO (InVitrogen), by restriction digestion of plasmid DNA with the enzymes BamH1 and Not-1 and ligated into the inducible expression vector pGene (InVitrogen) digested with the same enzymes. The GeneSwitch™ system (a system where in transgene expression is switched off in the absence of an inducer and switched on in the presence of an inducer) was performed as described in U.S. Pat. Nos. 5,364,791; 5,874,534; and 5,935,934. […]
10-14 days post selection 10 nM Mifepristone (InVitrogen), was added to the culture medium to induce the expression of the receptor. […] Receptor bound antibody was detected by incubation of the cells for 60 minutes on ice with a goat anti rabbit antibody, conjugated with Alexa 488 fluorescence marker (Molecular Probes). Following two further washes with Sorting Medium, cells were filtered through a 50 μm Filcon™ (BD Biosciences) and then analysed on a FACS Vantage SE Flow Cytometer fitted with an Automatic Cell Deposition Unit. […]

Rat pharmacokinetics = format: in vivo, male CD Sprague Dawley rats
Protocol: Compounds were dosed to male CD Sprague Dawley rats by single intravenous or oral administration at a nominal dose level of 1 mg/kg and 3 mg/kg respectively. Compounds were formulated in 5% DMSO,45% PEG200,50% water. An intravenous profile was obtained by taking serial or terminal blood samples at 0.083, 0.25, 0.5, 1, 2, 4, and 7 hours post dose. An oral profile was obtained by taking serial or terminal blood samples at 0.25, 0.5, 1, 2, 4, 7 and 12 hours post dose. Blood samples were taken directly into heparinised tubes. Blood samples were prepared by protein precipitation and subjected to quantitative analysis by LC-MS/MS using compound-specific mass transitions. Drug concentration-time profiles were generated and non-compartmental PK analysis used to generate estimates of half-life, clearance, volume of distribution and oral bioavailability.

Dog pharmacokinetics = format: in vivo, male Beagle dogs
Protocol: Compounds were dosed to male Beagle dogs by single intravenous or oral administration at a nominal dose level of 1 mg/kg and 2 mg/kg respectively. The study was carried out according to a crossover design such that the same dog was used for both dosing events and the dosing events occurred 1 week apart. Compounds were formulated in 5% DMSO,45% Peg200,50% water. An intravenous profile was obtained by taking serial blood samples at 0.083, 0.25, 0.5, 0.75, 1, 2, 4, 6 & 12 hr post dose. An oral profile was obtained by taking serial blood samples at 0.25, 0.5, 0.75, 1, 2, 4, 6, 12 & 24 hr post dose. Blood samples were taken directly into heparinised tubes. Blood samples were prepared by protein precipitation and subjected to quantitative analysis by LC-MS/MS using compound-specific mass transitions. Drug concentration-time profiles were generated and non-compartmental PK analysis used to generate estimates of half-life, clearance, volume of distribution and oral bioavailability.

human H1 receptor = target: T2, human H1 receptor (Homo sapiens, UniProt P35367); experiment: Histamine H1 functional antagonist assay (FLIPR); format: cell-based; conditions: functional antagonism vs histamine EC80, FLIPR, CHO cells; read-out: average pki (pKb) at H1 (converted)
T2 construct: expressed in transfected cells
T2 sequence (P35367 whole entry): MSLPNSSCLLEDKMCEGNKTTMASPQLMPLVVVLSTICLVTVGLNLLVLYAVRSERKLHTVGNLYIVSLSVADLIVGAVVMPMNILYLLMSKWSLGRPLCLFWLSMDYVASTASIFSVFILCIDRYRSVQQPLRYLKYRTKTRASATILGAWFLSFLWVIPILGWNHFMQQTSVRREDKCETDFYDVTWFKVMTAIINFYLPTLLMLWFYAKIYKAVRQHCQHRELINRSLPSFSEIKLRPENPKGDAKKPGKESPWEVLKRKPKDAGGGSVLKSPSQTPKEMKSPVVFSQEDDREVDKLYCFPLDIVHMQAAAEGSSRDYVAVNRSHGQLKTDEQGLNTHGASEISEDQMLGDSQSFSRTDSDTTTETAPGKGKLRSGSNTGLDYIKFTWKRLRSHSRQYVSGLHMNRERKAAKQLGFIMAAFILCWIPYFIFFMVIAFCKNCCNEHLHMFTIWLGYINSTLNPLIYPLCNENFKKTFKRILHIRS
Protocol: H1 Receptor Cell Line Generation and FLIPR Assay Protocol
1. Generation of Histamine H1 Cell Line
The human H1 receptor was cloned using known procedures described in the literature [Biochem. Biophys. Res. Commun. 1994, 201(2), 894]. Chinese hamster ovary cells stably expressing the human H1 receptor were generated according to known procedures described in the literature [Br. J. Pharmacol. 1996, 117(6), 1071].
Histamine H1 Functional Antagonist Assay […]
10 μl of test compound, diluted to the required concentration in Tyrodes buffer+probenecid (or 10 μl Tyrodes buffer+probenecid as a control) was added to each well and the plate incubated for 30 min at 37° C., 5% CO2. The plates were then placed into a FLIPR™ (Molecular Devioes, UK) to monitor cell fluorescence (λex=488 nm, λEM=540 nm) in the manner described in Sullivan et al. (In: Lambert DG (ed.), Calcium Signaling Protocols, New Jersey: Humana Press, 1999, 125-136) before and after the addition of 10 μl histamine at a concentration that results in the final assay concentration of histamine being EC80.
Functional antagonism is indicated by a suppression of histamine induced increase in fluorescence, as measured by the FLIPR™ system (Molecular Devices). By means of concentration effect curves, functional affinities are determined using standard pharmacological mathematical analysis.

With CS(=O)(=O)c1ccc(C(=O)N2CCN(c3ccc(OC4CCN(C5CCC5)CC4)cc3)CC2)cc1 [compound of formula (I), 1-{4-[(1-Cyclobutyl-4-piperidinyl)oxy]phenyl}4-{[4-(methylsulfonyl)phenyl]carbonyl}piperazine] the concentration at 5 min (CNS penetration) was under 100 ng/g, the Ki (histamine H3 receptor) was about 0.000251 µM and the clearance (Rat pharmacokinetics; male, CD Sprague Dawley, whole blood, 1 mg/kg intravenous) was about 1.74 L/h/kg. For the same molecule, the half-life (Rat pharmacokinetics; male, CD Sprague Dawley, whole blood, IV route, 1 mg/kg) was about 2 h, the “oral bioavailability in the rat” value (Rat pharmacokinetics; oral 3 mg/kg vs intravenous 1 mg/kg) was “greater than 50 %F” and the clearance (Dog pharmacokinetics; male, Beagle, whole blood, 1 mg/kg intravenous) was about 0.6 L/h/kg. The half-life (Dog pharmacokinetics; male, Beagle, whole blood, IV route, 1 mg/kg) was about 5 h, the “oral bioavailability in the dog” value (Dog pharmacokinetics; oral 2 mg/kg vs intravenous 1 mg/kg) was “about 99 % F” and the Ki (human H1 receptor) was about 2.51 µM.
